US20220332700A1, “NOVEL APOPTOSIS SIGNAL-REGULATING KINASE 1 INHIBITORS” (MANKIND PHARMA LTD, priority 2019, published 2022)

What was measured:
[1] = target: T1, recombinant ASK1 (Homo sapiens, UniProt Q99683); assay: ASK1 Biochemical Assay (HTRF KinEASE-STK S3); settings: ATP 100 μM; read-out: Biochemical Assay IC50
T1 construct: purchased Carna Biosciences
Summary of the method: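 Recombinant ASK1 (5 ng) preincubated with compound 1 h at 23 °C in MOPS pH 7 buffer with Mg-acetate, DTT, NP40, glycerol, BSA and 1% DMSO. Inhibition calculated against vehicle after substrate-blank subtraction.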

[2] = target: T2, Human ASK1 (Homo sapiens, UniProt Q99683); assay: ASK1 Cell Based Assay (phospho p38 read out in hASK1 transfected HEK293T-AP1 cells); settings: HEK293T-AP1 cells, 1 mM hydrogen peroxide, phospho p38; read-out: Cell Based Assay IC50
T2 construct: expressed in transfected cells; host or cells: HEK293T-AP1
T2 sequence (Q99683 1-1374): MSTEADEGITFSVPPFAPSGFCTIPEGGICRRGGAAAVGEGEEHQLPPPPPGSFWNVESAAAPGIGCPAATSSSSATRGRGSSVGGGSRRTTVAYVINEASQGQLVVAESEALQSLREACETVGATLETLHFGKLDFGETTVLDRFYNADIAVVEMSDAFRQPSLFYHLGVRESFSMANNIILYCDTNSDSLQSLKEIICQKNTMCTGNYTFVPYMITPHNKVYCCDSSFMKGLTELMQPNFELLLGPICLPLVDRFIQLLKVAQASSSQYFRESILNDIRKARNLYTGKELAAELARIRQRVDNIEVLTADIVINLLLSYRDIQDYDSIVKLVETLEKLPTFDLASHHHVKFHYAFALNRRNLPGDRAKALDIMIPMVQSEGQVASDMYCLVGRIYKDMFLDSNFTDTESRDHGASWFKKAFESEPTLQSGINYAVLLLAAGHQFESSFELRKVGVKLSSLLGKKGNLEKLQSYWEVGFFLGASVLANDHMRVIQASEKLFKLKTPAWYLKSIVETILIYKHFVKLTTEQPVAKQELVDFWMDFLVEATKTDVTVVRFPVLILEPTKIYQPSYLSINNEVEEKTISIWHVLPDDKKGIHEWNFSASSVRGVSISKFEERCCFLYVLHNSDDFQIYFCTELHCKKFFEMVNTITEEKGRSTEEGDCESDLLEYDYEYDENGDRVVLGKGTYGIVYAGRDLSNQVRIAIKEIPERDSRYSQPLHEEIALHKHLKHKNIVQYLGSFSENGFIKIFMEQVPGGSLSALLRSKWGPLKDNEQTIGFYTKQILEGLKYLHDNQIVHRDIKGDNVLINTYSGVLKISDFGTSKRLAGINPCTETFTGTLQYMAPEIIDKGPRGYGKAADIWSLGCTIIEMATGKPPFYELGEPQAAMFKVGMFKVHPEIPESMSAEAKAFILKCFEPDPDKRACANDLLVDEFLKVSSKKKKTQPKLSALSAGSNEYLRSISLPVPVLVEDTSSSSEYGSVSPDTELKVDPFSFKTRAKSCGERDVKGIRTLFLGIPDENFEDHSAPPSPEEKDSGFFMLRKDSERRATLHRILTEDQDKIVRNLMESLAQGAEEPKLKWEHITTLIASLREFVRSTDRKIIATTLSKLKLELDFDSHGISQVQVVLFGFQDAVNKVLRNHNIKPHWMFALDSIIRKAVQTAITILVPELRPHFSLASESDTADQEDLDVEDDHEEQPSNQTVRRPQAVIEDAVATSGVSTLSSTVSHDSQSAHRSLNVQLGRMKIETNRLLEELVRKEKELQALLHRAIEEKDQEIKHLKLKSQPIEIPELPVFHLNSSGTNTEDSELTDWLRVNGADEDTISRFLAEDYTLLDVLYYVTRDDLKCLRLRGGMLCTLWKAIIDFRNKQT
Summary of the method: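 HEK293T-AP1 cells transfected with hASK1, after 24 h treated with compounds for 24 h (0.2% DMSO), then stimulated with 1 mM H2O2 for 1 h with compounds present.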

Row | Structure (SMILES) | IC50 [1] [µM] | IC50 [2] [µM]
1 | CC(C)n1cnnc1-c1cccc(N2CCN(c3ccc(N4CCOCC4)nc3)C2=O)n1 [Example 1101, 1-(6-(4-isopropyl-4H-1,2,4-triazol-3-yl)pyridin-2-yl)-3-(6-morpholinopyridin-3-yl)imidazolidin-2-one] | < 0.05 | 0.19
2 | CC(C)n1cnnc1-c1cccc(N2CCN(c3cnc(N4CCOCC4)nc3)C2=O)n1 [Example 1103, 1-(6-(4-isopropyl-4H-1,2,4-triazol-3-yl)pyridin-2-yl)-3-(2-morpholinopyrimidin-5-yl)imidazolidin-2-one] | < 0.1 | > 0.1
3 | CC(C)n1cnnc1-c1cccc(N2CCN(c3ccc(-n4ccnc4)nc3)C2=O)n1 [Example 1104, 1-(6-(1H-imidazol-1-yl)pyridin-3-yl)-3-(6-(4-isopropyl-4H-1,2,4-triazol-3-yl)pyridin-2-yl)imidazolidin-2-one] | < 0.1 | > 0.1
4 | CC(C)n1cnnc1-c1cccc(N2CCN(c3ccc(N(C)C)nc3)C2=O)n1 [Example 1105, 1-(6-(dimethylamino)pyridin-3-yl)-3-(6-(4-isopropyl-4H-1,2,4-triazol-3-yl)pyridin-2-yl)imidazolidin-2-one] | < 0.1 | > 0.1
5 | CNC(=O)c1ccc(N2CCN(c3cccc(-c4nncn4C(C)C)n3)C2=O)cn1 [Example 1106, 5-(3-(6-(4-isopropyl-4H-1,2,4-triazol-3-yl)pyridin-2-yl)-2-oxoimidazolidin-1-yl)-N-methylpyridine-2-carboxamide] | < 0.1 | > 1
6 | CC(C)n1cnnc1-c1cccc(N2CCN(c3ccc(N4CC(C#N)C4)nc3)C2=O)n1 [Example 1107, 1-(5-(3-(6-(4-isopropyl-4H-1,2,4-triazol-3-yl)pyridin-2-yl)-2-oxoimidazolidin-1-yl)pyridin-2-yl)azetidine-3-carbonitrile] | < 0.05 | < 0.1
7 | CC(C)n1cnnc1-c1cccc(N2CCN(c3cccc(N4CCOCC4)c3)C2=O)n1 [Example 1108, 1-(6-(4-isopropyl-4H-1,2,4-triazol-3-yl)pyridin-2-yl)-3-(3-morpholinophenyl)imidazolidin-2-one] | > 0.1 | > 1
8 | CC(C)n1cnnc1-c1cccc(N2CCN(c3ccc(C(=O)NC4CC4)nc3)C2=O)n1 [Example 1109, N-cyclopropyl-5-(3-(6-(4-isopropyl-4H-1,2,4-triazol-3-yl)pyridin-2-yl)-2-oxoimidazolidin-1-yl)pyridine-2-carboxamide] | < 0.1 | > 1
9 | CC(C)NC(=O)c1ccc(N2CCN(c3cccc(-c4nncn4C(C)C)n3)C2=O)cn1 [Example 1110, N-isopropyl-5-(3-(6-(4-isopropyl-4H-1,2,4-triazol-3-yl)pyridin-2-yl)-2-oxoimidazolidin-1-yl)pyridine-2-carboxamide] | < 0.1 | > 1
10 | CC(C)n1cnnc1-c1cccc(N2CCN(Cc3ccc(N4CCOCC4)cc3)C2=O)n1 [Example 1112, 1-(4-morpholinobenzyl)-3-(6-(4-isopropyl-4H-1,2,4-triazol-3-yl)pyridin-2-yl)imidazolidin-2-one] | < 0.1 | > 1
11 | CC(C)n1cnnc1-c1cccc(N2CCN(c3ccc(C(C#N)N4CCOCC4)nc3)C2=O)n1 (stereo not shown) [Example 1113, 2-(5-(3-(6-(4-isopropyl-4H-1,2,4-triazol-3-yl)pyridin-2-yl)-2-oxoimidazolidin-1-yl)pyridin-2-yl)-2-morpholinoacetonitrile] | < 0.1 | > 1
12 | CC(c1ccc(N2CCN(c3cccc(-c4nncn4C(C)C)n3)C2=O)cc1)N1CCOCC1 (stereo not shown) [Example 1114, 1-(6-(4-isopropyl-4H-1,2,4-triazol-3-yl)pyridin-2-yl)-3-(4-(1-morpholinoethyl)phenyl)imidazolidin-2-one] | < 0.01 | > 1
13 | CC(C)n1cnnc1-c1cccc(N2CCN(c3ccc(N4CC(C(N)=O)C4)nc3)C2=O)n1 [Example 1115, 1-(5-(3-(6-(4-isopropyl-4H-1,2,4-triazol-3-yl)pyridin-2-yl)-2-oxoimidazolidin-1-yl)pyridin-2-yl)azetidine-3-carboxamide] | < 0.1 | > 1
14 | CNC(=O)C1CCN(c2ccc(N3CCN(c4cccc(-c5nncn5C(C)C)n4)C3=O)cn2)CC1 [Example 1116, 1-(5-(3-(6-(4-isopropyl-4H-1,2,4-triazol-3-yl)pyridin-2-yl)-2-oxoimidazolidin-1-yl)pyridin-2-yl)-N-methylpiperidine-4-carboxamide] | < 0.05 | < 0.1
15 | COCCCNc1ccc(N2CCN(c3cccc(-c4nncn4C(C)C)n3)C2=O)cn1 [Example 1118, 1-(6-(3-methoxypropylamino)pyridin-3-yl)-3-(6-(4-isopropyl-4H-1,2,4-triazol-3-yl)pyridin-2-yl)imidazolidin-2-one] | < 0.1 | > 1
16 | CC(C)n1cnnc1-c1cccc(N2CCN(c3ccc(S(C)(=O)=O)s3)C2=O)n1 [Example 1123, 1-(6-(4-isopropyl-4H-1,2,4-triazol-3-yl)pyridin-2-yl)-3-(5-(methylsulfonyl)thiophen-2-yl)imidazolidin-2-one] | > 0.1 | > 1
17 | CC(C)n1cnnc1-c1cccc(N2CCN(c3ccc4c(c3)C(C)(C)CS4(=O)=O)C2=O)n1 [Example 1124, 1-(3,3-dimethyl-1,1-dioxido-2,3-dihydrobenzo[b]thiophen-5-yl)-3-(6-(4-isopropyl-4H-1,2,4-triazol-3-yl)pyridin-2-yl)imidazolidin-2-one] | < 0.1 | > 1
18 | CC(C)n1cnnc1-c1cccc(N2CCN(c3ccc4c(ccn4C)c3)C2=O)n1 [Example 1125, 1-(6-(4-isopropyl-4H-1,2,4-triazol-3-yl)pyridin-2-yl)-3-(1-methyl-1H-indol-5-yl)imidazolidin-2-one] | < 0.1 | > 1
19 | CC(C)n1cnnc1-c1cccc(N2CCN(c3ccc(OCCS(C)(=O)=O)cc3)C2=O)n1 [Example 1126, 1-(4-(2-(methylsulfonyl)ethoxy)phenyl)-3-(6-(4-isopropyl-4H-1,2,4-triazol-3-yl)pyridin-2-yl)imidazolidin-2-one] | < 0.1 | > 1
20 | CNC(=O)C1CCN(Cc2ccc(N3CCN(c4cccc(-c5nncn5C(C)C)n4)C3=O)cc2)CC1 [Example 1128, 1-(4-(3-(6-(4-isopropyl-4H-1,2,4-triazol-3-yl)pyridin-2-yl)-2-oxoimidazolidin-1-yl)benzyl)-N-methylpiperidine-4-carboxamide] | < 0.1 | > 1
21 | CC(C)C(c1ccc(N2CCN(c3cccc(-c4nncn4C(C)C)n3)C2=O)cc1)N1CCOCC1 (stereo not shown) [Example 1129, 1-(6-(4-isopropyl-4H-1,2,4-triazol-3-yl)pyridin-2-yl)-3-(4-(2-methyl-1-morpholinopropyl)phenyl)imidazolidin-2-one] | < 0.1 | > 1
22 | CNC(=O)[C@@H]1CCN(c2ccc(N3CCN(c4cccc(-c5nncn5C(C)C)n4)C3=O)cc2)C1 [Example 1130, (R)-1-(4-(3-(6-(4-isopropyl-4H-1,2,4-triazol-3-yl)pyridin-2-yl)-2-oxoimidazolidin-1-yl)phenyl)-N-methylpyrrolidine-3-carboxamide] | < 0.05 | < 0.1
23 | CNC(=O)[C@H]1CCN(c2ccc(N3CCN(c4cccc(-c5nncn5C(C)C)n4)C3=O)cc2)C1 [Example 1131, (S)-1-(4-(3-(6-(4-isopropyl-4H-1,2,4-triazol-3-yl)pyridin-2-yl)-2-oxoimidazolidin-1-yl)phenyl)-N-methylpyrrolidine-3-carboxamide] | < 0.1 | 1.56
